Source: paper PMC5037758, “Affinity of ^nat/68Ga-Labelled Curcumin and Curcuminoid Complexes for β-Amyloid Plaques: Towards the Development of New Metal-Curcumin Based Radiotracers” (International Journal of Molecular Sciences, 2016)

What was measured:
amyloid β-protein (1–40) [1] = molecular target: T1, amyloid β-protein (1–40) (Homo sapiens, UniProt P05067); assay: direct radioligand binding to fibrils with displacement by curcumin; fluorescence microscopy
T1 construct: gene APP; Aβ(1–40) synthetic amyloid fibrils
T1 sequence (P05067 672-711): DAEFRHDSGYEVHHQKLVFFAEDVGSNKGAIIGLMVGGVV

amyloid β-protein (1–40) [2] = molecular target: T1, amyloid β-protein (1–40); assay: direct radioligand binding to fibrils (not displaced by curcumin, lower specificity); fluorescence microscopy

Substance	% bound (amyloid β-protein (1–40) [1])	% bound (amyloid β-protein (1–40) [2])
^68Ga(CUR)2^+	> 90 % bound	–
^68Ga(DAC)2^+	> 90 % bound	–
^68Ga(bDHC)2^+	–	~ 50 % bound
